Data published in patent publication US8524860B2, “Peptides with capacity to bind to scurfin and applications” (Proyecto de Biomedicina CIMA, S.L., priority 2007, dated 2013).
No end group written: not given here.

Tests used:
CT26 colon cancer line = test: CT26 colon cancer tumor model, antitumor vaccination with peptide AH1; assay type: in vivo, BALB/c mice; conditions: for protection from tumor: n=11
From the text: The tumor model used for this assay has been a model based on the CT26 colon cancer line, described in a previous work of the laboratory of the inventors (Casares et al, 2001. Eur J Immunol 31:1780-9; Casares et al., 2003. J Immunol 171:5931-9), since the inventors had previously shown that, in this model, Treg lymphocytes have an immunosuppressive effect favoring tumor growth (Casares et al., 2003, mentioned above).
The synthetic peptide (SEQ ID NO: 8) was used as a vaccine antigen, which peptide contains a cytotoxic T determinant for the CT26 line (Huang, A. Y. et al, Proc Natl Acad Sci USA, 1996. 93:9730-9735) and the immunization of which delays the tumor growth to a certain extent, without eliminating it due to the presence of Treg lymphocytes (Casares et al., 2003, mentioned above).
Briefly, groups of 6 six-week old BALB/c mice (Charles River) were immunized with peptide AH1 (SEQ ID NO: 8) as described in Casares et al., 2001, mentioned above, in the presence or absence of peptide P60 (SEQ ID NO: 1). Ten days after the immunization, the mice were subcutaneously injected with 5×10^5 CT26 cells, and the tumor evolution was measured.

scurfin = molecular target: T1, scurfin (Homo sapiens, UniProt Q9BZS1); test: Surface plasmon resonance (SPR) analysis of peptide binding to immobilized scurfin; conditions: peptide 10 μM, scurfin immobilized on CM5 chip, compared with irrelevant control peptide (SEQ ID NO: 6)
T1 construct: GST (glutathione-S-transferase); made in house; host or cells: Escherichia coli BL21
T1 sequence (Q9BZS1 1-431): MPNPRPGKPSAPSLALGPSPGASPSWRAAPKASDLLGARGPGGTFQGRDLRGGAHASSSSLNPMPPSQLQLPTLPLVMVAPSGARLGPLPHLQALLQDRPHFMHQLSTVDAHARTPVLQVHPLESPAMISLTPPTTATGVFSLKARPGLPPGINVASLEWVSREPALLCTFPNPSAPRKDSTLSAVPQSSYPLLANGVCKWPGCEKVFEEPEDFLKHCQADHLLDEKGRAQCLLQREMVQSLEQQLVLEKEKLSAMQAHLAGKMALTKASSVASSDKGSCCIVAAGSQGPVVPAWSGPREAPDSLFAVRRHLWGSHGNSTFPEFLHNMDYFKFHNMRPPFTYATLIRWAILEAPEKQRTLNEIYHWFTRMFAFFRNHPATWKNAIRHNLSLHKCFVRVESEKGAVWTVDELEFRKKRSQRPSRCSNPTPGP
From the text: The capacity of peptide P60 (SEQ ID NO: 1) to bind to scurfin was verified by means of the biomolecular interaction surface plasmon resonance (SPR) using the Biosensor BIAcore X (BIAcore, AB, Uppsala, Sweden). Scurfin, produced in E. coli and purified by affinity using GSTrap columns (Amersham, Pharmacia), was covalently immobilized on the surface of the flow cell 2 (FC2) of a CM5 chip (Sensor Chip CM Ref 116Br-1000-14, BIAcore, General Electrics), as described in De Crescenzo et al. (JBC 2001, Vol 276; 29632-29643). Flow cell 1 (FC1), on the surface of which scurfin is not immobilized, was used as a reference reflow cell. The solutions of each peptide (10 μM) were injected three times in a 10 mM Hepes buffer, 150 mM NaCl, pH 7.4 at a flow of 30 μl/min. The binding curves were processed by means of subtracting the response in FC1 from that obtained in FC2. The response in equilibrium was compared between peptide P60 (SEQ ID NO: 1) and an irrelevant control peptide of the same size (length), specifically, the peptide the amino acid sequence of which is shown in SEQ ID NO: 6, corresponding to amino acids 123-137 of the human CD81 receptor. Each response was multiplied by a mass correction factor: MW(P60)/MW(P), wherein MW(P60) is the molecular weight of peptide P60 (SEQ ID NO: 1) and MW(P) is that of the control peptide.
For the purpose of evaluating the importance of the amino acids placed at the amino-terminal and carboxyl-terminal ends of peptide P60 (SEQ ID NO: 1), truncated forms of said peptide P60 (SEQ ID NO: 1) were chemically synthesized as has been mentioned above, and the capacity of said truncated forms to bind to scurfin was assayed by means of SPR, according to the protocol previously described in section 1.3.
Likewise, the capacity of said peptides (SEQ ID NO: 2, SEQ ID NO: 3 and SEQ ID NO: 4) to bind to scurfin was assayed by means of SPR in the previously mentioned conditions.

[1] = test system: Karpas 299 human cell line; test: Mixed lymphocyte reaction (MLR) of PBMCs from 2 donors with Karpas 299 cells, IFN-γ ELISA; assay type: cell-based
Description: After verifying and confirming its profile, in vitro assays were carried out using the Karpas 299 human cell line (ACC-31, DSMZ, Germany), derived from a human lymphoma with a regulatory T cell [Treg lymphocytes] profile (Wolke et al Int J Mol. Med. 2006 February; 17(2):275-8), the need to isolate CD4+CD25+ cells is thus prevented.
To evaluate the effect of peptide P60 (SEQ ID NO: 1) on the immunosuppressive activity of the Karpas 299 cell line, a “mixed lymphocyte reaction” (MLR) assay was carried out using peripheral blood mononuclear cells (PBMCs) from 2 donors in the presence or absence of the Karpas 299 cell line. This assay (MLR) is based on co-culturing lymphocytes of a different origin, with different histocompatibilities, which will recognize one another as foreign. This reaction makes lymphocytes proliferate, secreting cytokines. For this assay, 100,000 cells of each donor (positive MLR control) were cultured in a 96-well plate, alone or in the presence of 10,000 cells of the Karpas 299 cell line.
After 48 hours, the supernatants were extracted to measure interferon-gamma (IFN-γ) by means of a commercial ELISA (Ref 555138, Pharmingen, San Diego, Calif., United States). […] In this assay of inhibition of the MLR due to the presence of the Karpas 299 cell line, the capacity of peptide P60 (SEQ ID NO: 1) to restore the production of IFN-γ due to the MLR was analyzed.

human Treg lymphocytes [2] = test: MLR of PBMCs from 2 donors with human Treg lymphocytes, tritiated thymidine incorporation; assay type: cell-based; conditions: 100 μM, 3 days of culture
Description: To carry out the assay based on a mixed lymphocyte reaction (MLR), such as that shown in Example 2, peripheral blood mononuclear cells (PBMCs) from 2 donors were mixed together with CD4+CD25+ Treg cells (Treg lymphocytes) purified from one of them, by means of using a commercial kit (Ref 130091072, Miltenyi Biotec, Bergisch Gladbach, Germany) following the instructions of the manufacturer. After the purification, the cells were analyzed by flow cytometry, a purity of approximately 90% being obtained in all the assays. This MLR assay was carried out incubating 10^5 PBMC cells from each donor and 2×10^4 Treg lymphocytes in the presence or absence of peptide P60 (SEQ ID NO: 1), for the purpose of assaying its capacity to block the inhibitory effect of human Treg lymphocytes. After 3 days of culture, 0.5 μCi/well of tritiated thymidine (Amersham, Pharmacia) and after 16 hours, the plates were harvested using a harvester (Filtermate 96 harvester; Packard Instrument, Meriden, Conn.) and the radioactivity incorporated to the cell DNA was counted (as a measurement of the cell proliferation) by means of a scintillation counter (Topcount; Packard Instrument).

human Treg lymphocytes [3] = test: IFN-γ production by human CD4 effector T lymphocytes stimulated with anti-CD3/CD28 microspheres with human Treg lymphocytes; assay type: cell-based; conditions: 100 μM, anti-CD3/CD28 stimulus, 48 hours, ELISA
Description: This assay is based on the measurement of the production of IFN-γ in a culture of 10^5 human CD4 effector T lymphocytes cultured with microspheres containing anti-CD3 and anti-CD28 antibodies adhered to their surface (Dynabeads® CD3/CD28; Ref 111.31, Dynal), in the presence or absence of 2×10^4 human Treg lymphocytes (purified as indicated above). This assay was carried out in the presence or absence of peptide P60 (SEQ ID NO: 1) to assess its inhibitory effect of Treg lymphocytes. After 48 hours of culture, the presence of IFN-γ in the culture supernatants was measured by means of a commercial ELISA (Ref 555138, Pharmingen).

murine Treg lymphocytes [4] = test: Activation of BALB/c mouse splenocytes with anti-CD3 antibodies with murine Treg lymphocytes, IFN-γ; assay type: cell-based; conditions: 100 μM
Description: Firstly, assays of activation of BALB/c mouse splenocytes (Charles River) in the presence of anti-CD3 antibodies (Ref 553057, BD Biosciences) were carried out.

murine Treg lymphocytes [5] = test: Murine MLR (BALB/c effector lymphocytes with C57BL/6 dendritic cells) with BALB/c Treg lymphocytes, tritiated thymidine incorporation; assay type: cell-based, mouse; conditions: 100 μM
Description: Secondly, mixed lymphocyte reaction (MLR) assays were carried out. The effector lymphocytes isolated from BALB/c mice (10^5 cells/well) were co-cultured with purified dendritic cells from C57BL/6 mice (Charles River), in the presence or absence of BALB/c Treg lymphocytes and in the presence or absence of peptide P60 (SEQ ID NO: 1) (100 μM). The measurement of the cell proliferation was carreid out by means of a conventional tritiated thymidine incorporation assay as has been previously described.

murine Treg lymphocytes [6] = test: Co-culture of OT-1 transgenic mouse effector lymphocytes with dendritic cells, SIINFEKL antigen and Treg lymphocytes, IFN-γ ELISA; assay type: cell-based; conditions: 100 μM, SIINFEKL 10 μg/ml, OT-1 effector lymphocytes
Description: Thirdly, the effect of peptide P60 (SEQ ID NO: 1) was measured in an assay based on co-culturing splenocytes from OT-1 transgenic mice (the T lymphocytes of which have a specific T cell receptor for the peptide SIINFEKL (SEQ ID NO: 7) of ovalbumin, which were kindly provided by Dr Melero, CIMA Pamplona) with Treg lymphocytes in the presence of antigen (SEQ ID NO: 7) and in the presence or absence of Treg lymphocytes. […] The effector lymphocytes isolated from OT-1 transgenic mice (10^5 cells/well) were co-cultured with dendritic cells from C57BL/6 mice and the peptide SIINFEKL (SEQ ID NO: 7) (10 μg/ml), in the presence or absence of 2×10^4 BALB/cregulatory T cells and in the presence or absence of peptide P60 (SEQ ID NO: 1) (100 μM).

[7] = test system: inhibition of the activation of transcription factor NF-κB by scurfin; test: NF-κB luciferase reporter in 293 cells transfected with pcDNA-Foxp3; assay type: cell-based; conditions: 100 μM, 24 hours
From the text: It has been described that the presence of scurfin can inhibit the activation of the transcription factor NF-kB in 293 cells (Betelli et al, Proc Natl Acad Sci USA. 2005 102:5138-43). Based on this work, the effect of the addition of peptide P60 (SEQ ID NO: 1) to a culture of 293 cells transfected with a plasmid expressing the foxp3 gene, kindly provided by Dr Oukka and previously described (Betelli et al, Proc Natl Acad Sci USA. 2005 102:5138-43) and to a culture of 293 cells transfected with a control plasmid together with a plasmid expressing luciferase under a promoter inducible by NF-κB (Ref 631904, pNF-kB-Luc, Clontech) has been studied. The 293 cells were transfected by means of using lipofectamine with plasmid pNF-kB-Luc expressing luciferase under a promotor inducible by transcription factor NF-kB, in the presence or absence of plasmid pcDNA, pcDNA-Foxp3 and peptide P60 (SEQ ID NO: 1) (100 μM). After 24 hours of culture, the cells were harvested and the luciferase activity in the cell extracts was measured by means of using a suitable kit (Promega, Maddison, USA) and the luminometer (Orion Microplate luminometer, Berthold detection systems, Germany).

“AH1: synthetic peptide used as vaccine antigen, contains a cytotoxic T determinant for the CT26 line (SPSYVYHQF) [reference compound]” gave a protection from tumor (CT26 colon cancer line; mice immunized with AH1 alone) of 0%.

“RDFQSFRKMWPFF [T(1-13), truncated form of P60, amino acids 1-13 of P60]” was tested, and the “capacity to bind to scurfin (SPR signal)” value (scurfin) was “does not destroy the capacity of the peptide to bind to scurfin”.

For “RDFQSFRKMWPFFA [T(1-14), truncated form of P60, amino acids 1-14 of P60]”, the “capacity to bind to scurfin (SPR signal)” value (scurfin) was “does not destroy the capacity of the peptide to bind to scurfin”.

In the case of RDFQSFRKMWPFFAM [P60], the “capacity to bind to scurfin (SPR signal)” value (scurfin) is reported as “positive signal”, the “restoration of the production of IFN-γ due to the MLR inhibited by Karpas 299 cells” value ([1]; 100 μM, 48 hours, ELISA) is reported as “capable of partly recovering the production of IFN-γ” and the “inhibitory activity on the immunosuppressive action of Treg cells among the 25 peptides selected” value ([1]; several in vitro assays (Example 2)) is reported as “highest inhibitory activity”. For the same substance, the “restoration of the MLR (cell proliferation) inhibited by human Treg lymphocytes” value (human Treg lymphocytes [2]) was “capable of partly restoring the MLR”, the “restoration of the production of IFN-γ inhibited by human Treg lymphocytes” value (human Treg lymphocytes [3]) was “partly restoring the production of IFN-γ” and the “inhibition of the immunosuppressive effect of Treg lymphocytes on production of IFN-γ in response to anti-CD3” value (murine Treg lymphocytes [4]) was “capable of inhibiting the immunosuppressive effect of Treg lymphocytes on the production of IFN-γ”. The “inhibition of the immunosuppressive effect of Treg lymphocytes on proliferation of effector cells in response to an MLR” value (murine Treg lymphocytes [5]) was “capable of inhibiting the immunosuppressive effect of Treg lymphocytes on the proliferation of effector cells”, the “inhibition of the immunosuppressive effect of Treg lymphocytes on production of IFN-γ by antigen-specific effector cells” value (murine Treg lymphocytes [6]) was “capable of inhibiting the immunosuppressive effect of Treg lymphocytes on the production of IFN-γ” and the “expression of luciferase (NF-κB reporter) inhibited by scurfin” value [7] was “restores the expression of luciferase”. For the same substance, the protection from tumor (CT26 colon cancer line; mice immunized with peptide AH1 and treated with P60 50 nm/mouse i.p. days 0, 2, 4, 6, 8, 10) was 82%, the “mice that developed a palpable tumor” value (CT26 colon cancer line; of the 11 mice immunized with peptide AH1 and treated with P60) was 2 and the protection from tumor (CT26 colon cancer line; peptide P60 alone, non-immunized mice) was 10%.

With “T(2-15): truncated form of P60, amino acids 2-15 of P60 (DFQSFRKMWPFFAM)” the “capacity to bind to scurfin (SPR signal)” value (scurfin) was “inhibits the capacity of the peptide to bind to scurfin”.
